The IC50 is the concentration needed to halve the response being measured.

Experiment [1] deals with exatecan-resistant KB cells. In words: IC50 assay in exatecan-resistant KB cells. Type of experiment: cell-based, human. Particulars: for IC50: Homo sapiens. Here is the method: To develop the TOP1 inhibitor resistant KB cells, the cells in flask (50-60% confluence) were repeatedly treated with increasing concentration of exatecan, topotecan, SN-38 or irinotecan for over 4 months. The starting TOP1 inhibitor treatment concentration was close to the KB cell's IC90 values.
The following day, cells were treated with selected TOP1 inhibitors (e.g., free exatecan) or NDC at suitable concentration ranges. […] The resistant factor can be calculated by using the following equation: […]

A further experiment has as its system naïve KB cells. Nature of the experiment: IC50 assay in naïve KB cells. Type of experiment: cell-based. Particulars: Homo sapiens; naïve (regular) KB cells.
Experiment [2] relates to irinotecan-resistant KB cells. Nature of the experiment: IC50 assay in irinotecan-resistant KB cells. Type of experiment: cell-based, human.
Excerpt: (§1) Naïve human KB cell line were purchased from ATCC and maintained in folic acid free RPMI 1640 media/10% FBS, and 1% of penicillin/streptomycin. To develop the TOP1 inhibitor resistant KB cells, the cells in flask (50-60% confluence) were repeatedly treated with increasing concentration of exatecan, topotecan, SN-38 or irinotecan for over 4 months. The starting TOP1 inhibitor treatment concentration was close to the KB cell's IC90 values. After each treatment, the cells were carefully washed with fresh RPMI 1640 media and left to proliferate for an additional 2-3 days until reaching 50-60% confluence.
(§2) Both naïve and TOP1 inhibitor resistant KB cell were cultured in folic acid-free medium (RPMI1640, ThermoFisher, GIBCO). Cells were plated in opaque 96-well plates at a density of 3×10^3 cells per well (total of 90 μL) and allowed to attach overnight. […] After exposing the TOP1 inhibitors with both types of cells for the same period of time, the cell viability was assessed using the CellTiter-Glo2.0 assay (Promega) according to manufacturer's instructions. Data for both viability and proliferation were plotted using Prism7 software (GraphPad). The resistant factor can be calculated by using the following equation:

Read-outs that look alike come from different tables or passages of the source.

Excerpt for naïve KB cells: as §1, §2

In the case of `CC[C@@]1(O)C(=O)OCc2c1cc1n(c2=O)Cc2c-1nc1cc(F)c(C)c3c1c2[C@@H](N)CC3` [exatecan], the “resistance of exatecan-resistant versus naïve KB cells” value in experiment [1] was more than 8 ×. The IC50 in experiment [1] (KB, KB cells pretreated 7× with exatecan) was found to be 16.9 nM; in experiment [1] (KB cells pretreated 4× with exatecan, read-out: IC50), 4 nM; in the experiment on naïve KB cells, 2 nM.
Regarding `CCc1c2c(nc3ccc(OC(=O)N4CCC(N5CCCCC5)CC4)cc13)-c1cc3c(c(=O)n1C2)COC(=O)[C@]3(O)CC` [irinotecan], the IC50 in the experiment with naïve KB cells was 668 nM; in experiment [2] (Homo sapiens, irinotecan-resistant KB cells), 3620 nM. In experiment [2], the “resistance of irinotecan-resistant versus naïve KB cells” value came to 5 ×.

The record behind these values is patent US11957760B2, “Folate receptor targeted nanoparticle drug conjugates and uses thereof” (priority 2020, dated 2024).
